Assay: Retention rate of the agriculturally active ingredient after xenon light irradiation (photodegradation)
Assay type: physicochemical
Conditions: active ingredient alone, air-dried on glass petri dish; xenon light (290 nm cutoff), 0.68 W/m^2 at 340 nm, 8 hours, 35° C.; weight % relative to 5 mg
Experimental: A method for the calculation of a retention rate of the agriculturally active ingredient defined above is more specifically as follows. First, 250 mg of the agriculturally active ingredient is dissolved in 50 mL of a solvent such as acetone, which can sufficiently dissolve the agriculturally active ingredient and also has high volatility, and 1 mL of the solution is added to a glass petri dish having a diameter of 6 cm using a one-mark pipette, spread entirely over the petri dish, and then air-dried at room temperature. The petri dish is covered with a lid made of quartz glass and then set in a weathering tester (manufactured by Q-Lab Corporation under the trade name of Q-SUN Xenon Accelerated Weathering Tester, Model Xe-3) equipped with a borosilicate filter (manufactured by Q-Lab Corporation under the trade name of Daylight-BB Optical Filter) attached thereto. After irradiation with xenon light under the conditions of an intensity at 340 nm of 0.68 W/m^2 and a temperature of 35° C. (35° C. as measured by an insulated black panel thermometer) for 8 hours, the amount of the agriculturally active ingredient remaining on the petri dish is determined by a known determination method such as high-performance liquid chromatography. It is possible to determine a retention rate by calculating as the weight percentage relative to 5 mg of the agriculturally active ingredient used above. The above agriculturally active ingredient used in the microcapsule of the present invention may be any of an insecticidally active component, a fungicidally active component, and a herbicidally active component, and is not particularly limited. The agriculturally active ingredient includes fenpyrazamine, allethrin, and prallethrin. […] It is preferred to use an agriculturally active ingredient which is solid at normal temperature (25° C.), for example fenpyrazamine.

SMILES	retention rate after irradiation with xenon light [%]
C=CCC1=C(C)C(OC(=O)C2C(C=C(C)C)C2(C)C)CC1=O (stereo not drawn) [allethrin]	3.3
C=CCSC(=O)n1c(N)c(-c2ccccc2C)c(=O)n1C(C)C [fenpyrazamine]	28.1
C#CCC1=C(C)C(OC(=O)C2C(C=C(C)C)C2(C)C)CC1=O (stereo not drawn) [prallethrin]	6.4
